Source: patent publication US20250171511A1, “ANTIVIRAL PEPTIDES AND METHODS OF USE THEREOF” (Versitech Limited, priority 2021, published 2025)
Where no end group is shown, it is not given here. 4MPA = not defined here

Tested on: SARS-CoV-2 Delta variant
Assay type: in vivo, hamster
Settings: 6 h exposure, 4 hamsters

With “GAICHPVFCPRRYKQIGTCGLPGTKCCKKP-4MPA (cysteine pairing not given here; reading uncertain; also: printed as GAICHPVFCPRRYKQIGTCGLPGTKCCKKP-4MPA) [Peptide 4H30]” the “transmission to naïve contact hamsters” value was 25%.
